Columns and labels:
[1] = tested on: Schistosoma mansoni schistosomula (somules); test: S. mansoni somules phenotypic screen Caffrey; conditions: 2.5 µM, 48 h
[2] = tested on: Schistosoma mansoni adult males; test: S. mansoni adult phenotypic and motility screen Caffrey
PfA-M1 = biological target: T1, PfA-M1 (Plasmodium falciparum, UniProt O96935); test: rPfA-M1 aminopeptidase activity (Florent); assay type: biochemical, P. falciparum; conditions: for effect on rPfA-M1 in words: 100µM
T1 construct: encoding residues 192-1085 of native PfA-M1; hexahistidine (N); TEV cleavage site (ENLYFQS) (N); made in house; host or cells: Escherichia coli BL21 (DE3) Rosetta 2

PfA-M17 = biological target: T2, PfA-M17 (Plasmodium falciparum, UniProt Q8IL11); test: rPfA-M17 aminopeptidase activity (Florent); assay type: biochemical, P. falciparum; conditions: for effect on rPfA-M17 in words: 100µM
T2 construct: residues 84-605 of native Plasmodium falciparum leucyl aminopeptidase PfA-M17 (PlasmoDB PF3D7_1446200); hexahistidine (N); TEV cleavage site (N); made in house; host or cells: Escherichia coli BL21 (DE3) Rosetta 2

Atg8-Atg3 = tested on: Atg8-Atg3; design: method as in ref [38] (a number printed in a supplementary file, which may have a reference list of its own: not looked up in the article's list); conditions: ref [38]; cited from earlier work
[3] = tested on: P. falciparum 3D7 trophozoites; test: Metabolomic fingerprint profiling LC-MS; assay type: cell-based, Plasmodium falciparum; design: UDP-D-glucose / ADP-D-glucose: unit not given here; conditions: for Acetyllysine / N-acetyl-L-ornithine / N-carbamoyl-L-aspartate / NADPH / dAMP / dCMP / dTDP / dTMP / dTTP / dihydroorotate / orotate / DLH / DLS/SDL/SID / PD / PEE / PVNF / 3-phosphoglycerate / ADP-D-glucose / ATP / CDP / D-sedoheptulose-1/7-phosphate / FAD / GMP / NAD+ / NADP+ / Octoluse Bisphosphate / Pyroglutamic acid / UDP-D-glucose / UDP-D-glucuronate / UDP-N-acetyl-glucosamine / UDP / UMP / UTP / a-ketoglutarate / citrate/isocitrate / cytidine / dATP / dGMP/AMP / fumarate / glucose-1/6-phosphate / glycerate / guanine / guanosine / hypoxanthine / indole / inosine / nicotinate / ornithine / phosphoenolpyruvate / pyruvate / ribose-phosphate / sarcosine/alanine / sn-glycerol-3-phosphate / succinate/methylmalonic acid / uridine / xanthosine: S2 Table Metabolomics; for Acetyllysine: metabolite Acetyllysine; for N-acetyl-L-ornithine: metabolite N-acetyl-L-ornithine; for N-carbamoyl-L-aspartate: metabolite N-carbamoyl-L-aspartate; for NADPH: metabolite NADPH; for dAMP: metabolite dAMP; for dCMP: metabolite dCMP; for dTDP: metabolite dTDP; for dTMP: metabolite dTMP; for dTTP: metabolite dTTP; for dihydroorotate: metabolite dihydroorotate; for orotate: metabolite orotate; for DLH: peptide DLH; for DLS/SDL/SID: peptide DLS/SDL/SID; for PD: peptide PD; for PEE: peptide PEE; for PVNF: peptide PVNF; for 3-phosphoglycerate: metabolite 3-phosphoglycerate; for ADP-D-glucose: metabolite ADP-D-glucose; for ATP: metabolite ATP; for CDP: metabolite CDP; for CDP / D-sedoheptulose-1/7-phosphate / GMP / Octoluse Bisphosphate / UDP / UMP / UTP / citrate/isocitrate / dGMP/AMP / fumarate / glucose-1/6-phosphate / glycerate / guanine / guanosine / inosine / pyruvate / sarcosine/alanine / succinate/methylmalonic acid / uridine / xanthosine: change in metabolite level after compound treatment; for D-sedoheptulose-1/7-phosphate: metabolite D-sedoheptulose-1/7-phosphate; for FAD: metabolite FAD; for GMP: metabolite GMP; for NAD+: metabolite NAD+; for NADP+: metabolite NADP+; for Octoluse Bisphosphate: metabolite Octoluse Bisphosphate; for Pyroglutamic acid: metabolite Pyroglutamic acid; for UDP-D-glucose: metabolite UDP-D-glucose; for UDP-D-glucuronate: metabolite UDP-D-glucuronate; for UDP-N-acetyl-glucosamine: metabolite UDP-N-acetyl-glucosamine; for UDP: metabolite UDP; for UMP: metabolite UMP; for UTP: metabolite UTP; for a-ketoglutarate: metabolite a-ketoglutarate; for citrate/isocitrate: metabolite citrate/isocitrate; for cytidine: metabolite cytidine; for dATP: metabolite dATP; for dGMP/AMP: metabolite dGMP/AMP; for fumarate: metabolite fumarate; for glucose-1/6-phosphate: metabolite glucose-1/6-phosphate; for glycerate: metabolite glycerate; for guanine: metabolite guanine; for guanosine: metabolite guanosine; for hypoxanthine: metabolite hypoxanthine; for indole: metabolite indole; for inosine: metabolite inosine; for 2_3-Diphosphoglyceric acid / 4-phosphopantothenate / 6-phospho-D-gluconate / FMN / IMP / Pyrophosphate / Sedoheptoluse bisphosphate / cyclic-AMP / glutathione disulfide / lactate / myo-inositol: metabolite level change after treatment; for nicotinate: metabolite nicotinate; for ornithine: metabolite ornithine; for phosphoenolpyruvate: metabolite phosphoenolpyruvate; for pyruvate: metabolite pyruvate; for ribose-phosphate: metabolite ribose-phosphate; for sarcosine/alanine: metabolite sarcosine/alanine; for sn-glycerol-3-phosphate: metabolite sn-glycerol-3-phosphate; for succinate/methylmalonic acid: metabolite succinate/methylmalonic acid; for uridine: metabolite uridine; for xanthosine: metabolite xanthosine
P. falciparum = test: EC50 listed in S2 Table Metabolomics (used to set the concentration tested); assay type: cell-based; conditions: Plasmodium falciparum; EC50 used for Factor_XEC50 in metabolomics; read-out: EC50_nM
T. cruzi Tulahuen = conditions: ref [84]; read-out: Trypanosoma cruzi Tulahuen intracellular amastigotes in MRC5 cell line EC50; cited from earlier work
[4] = tested on: Neospora caninum Nc-1 tachyzoites; test: Neospora caninum Nc-Betagal proliferation; assay type: cell-based
[5] = tested on: P. falciparum M1 aminopeptidase; design: method as in ref [23] (a number printed in a supplementary file, which may have a reference list of its own: not looked up in the article's list); conditions: ref [23]; cited from earlier work
[6] = tested on: P. falciparum M17 aminopeptidase; design: method as in ref [23] (a number printed in a supplementary file, which may have a reference list of its own: not looked up in the article's list); conditions: ref [23]; cited from earlier work

T1 sequence (O96935 192-1085): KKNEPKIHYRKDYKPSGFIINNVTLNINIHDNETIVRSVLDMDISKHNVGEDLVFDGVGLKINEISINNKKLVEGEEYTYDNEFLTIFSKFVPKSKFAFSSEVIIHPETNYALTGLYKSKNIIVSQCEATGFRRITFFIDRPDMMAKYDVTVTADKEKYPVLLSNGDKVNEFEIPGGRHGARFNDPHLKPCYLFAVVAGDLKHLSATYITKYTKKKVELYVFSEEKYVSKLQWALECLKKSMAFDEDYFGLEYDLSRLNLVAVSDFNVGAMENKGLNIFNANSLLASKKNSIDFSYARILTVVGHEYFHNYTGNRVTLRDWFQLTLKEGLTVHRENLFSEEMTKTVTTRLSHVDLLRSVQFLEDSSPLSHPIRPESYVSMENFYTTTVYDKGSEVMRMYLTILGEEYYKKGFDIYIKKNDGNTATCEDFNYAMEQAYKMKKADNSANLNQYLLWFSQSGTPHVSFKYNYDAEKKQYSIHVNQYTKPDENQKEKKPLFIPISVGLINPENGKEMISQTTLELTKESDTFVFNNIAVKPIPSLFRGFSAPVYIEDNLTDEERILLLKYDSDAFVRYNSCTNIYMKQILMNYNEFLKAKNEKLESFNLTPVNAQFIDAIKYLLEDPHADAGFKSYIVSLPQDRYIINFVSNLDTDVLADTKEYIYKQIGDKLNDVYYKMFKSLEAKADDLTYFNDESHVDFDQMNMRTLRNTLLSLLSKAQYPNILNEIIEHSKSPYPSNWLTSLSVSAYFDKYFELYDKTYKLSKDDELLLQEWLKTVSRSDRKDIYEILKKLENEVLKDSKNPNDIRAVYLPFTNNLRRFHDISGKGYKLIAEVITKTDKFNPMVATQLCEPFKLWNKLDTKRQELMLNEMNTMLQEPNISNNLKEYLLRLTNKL
T2 sequence (Q8IL11 84-605): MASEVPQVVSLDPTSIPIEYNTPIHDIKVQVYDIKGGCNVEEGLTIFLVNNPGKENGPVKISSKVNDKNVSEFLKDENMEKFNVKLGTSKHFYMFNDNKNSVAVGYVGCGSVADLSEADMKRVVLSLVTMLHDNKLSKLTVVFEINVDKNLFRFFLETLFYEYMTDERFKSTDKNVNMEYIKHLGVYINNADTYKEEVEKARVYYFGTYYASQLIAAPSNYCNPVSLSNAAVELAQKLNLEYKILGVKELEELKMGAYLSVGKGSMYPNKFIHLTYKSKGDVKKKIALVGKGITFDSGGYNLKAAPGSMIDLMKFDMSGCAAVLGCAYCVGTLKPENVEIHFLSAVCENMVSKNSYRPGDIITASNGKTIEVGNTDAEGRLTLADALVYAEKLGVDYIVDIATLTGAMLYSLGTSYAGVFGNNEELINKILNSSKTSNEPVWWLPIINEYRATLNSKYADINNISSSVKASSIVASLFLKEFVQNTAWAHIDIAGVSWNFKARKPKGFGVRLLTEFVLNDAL

O=C(Nc1ccc([N+](=O)[O-])cc1Cl)c1cc(Cl)ccc1O [niclosamide]
somule severity score [1]: 4 | S. mansoni adult males 48hr motility assay ([2]; 48 h, 5µM): zero | S. mansoni adult males visual tox scale, 0 = none, 4=most damaged ([2]; 48hr at 5 µM): 4

CC(C)C[C@H](NC(=O)[C@@H](O)[C@H](N)Cc1ccccc1)C(=O)O [bestatin, reference compound]
inhibition at 100 µM (PfA-M1): 57% | inhibition at 100 µM (PfA-M17): 100%

O=C(Nc1nc(-c2ccccn2)cs1)c1ccccc1Br [MMV665909]
PPI inhibitors of Atg8-Atg3 interaction (Atg8-Atg3): PPI inhibitors

COc1ccc(Nc2cc(C)nc(NCc3ccccc3)n2)cc1 [MMV006825]
effect on rPfA-M1 in words (PfA-M1): particularly effective | effect on rPfA-M17 in words (PfA-M17): only moderately inhibiting

Cc1ccc(Nc2nc(-c3ccccn3)cs2)cc1 [MMV007907]
Acetyllysine [3]: -0.3916 | N-acetyl-L-ornithine [3]: -0.2705 | N-carbamoyl-L-aspartate [3]: 0.4477 | NADPH [3]: 1.503 | dAMP [3]: -0.05008 | dCMP [3]: -0.3338 | dTDP [3]: -0.4245 | dTMP [3]: -0.5337 | dTTP [3]: 0.04887 | dihydroorotate [3]: 0.6541 | orotate [3]: 0.3803 | DLH [3]: -0.1443 | DLS/SDL/SID [3]: -0.03559 | PD [3]: -0.7075 | PEE [3]: -0.4235 | PVNF [3]: 0.2287 | 3-phosphoglycerate [3]: 0.2283 | ADP-D-glucose [3]: 0.03116 | ATP [3]: 0.08371 | CDP [3]: -0.4596 | D-sedoheptulose-1/7-phosphate [3]: -0.2275 | FAD [3]: 0.1798 | GMP [3]: 0.08425 | NAD+ [3]: 0.05427 | NADP+ [3]: -0.07684 | Octoluse Bisphosphate [3]: -0.09051 | Pyroglutamic acid [3]: 0.2079 | UDP-D-glucose [3]: -0.006173 | UDP-D-glucuronate [3]: 0.1137 | UDP-N-acetyl-glucosamine [3]: 0.001514 | UDP [3]: -0.4364 | UMP [3]: -0.7518 | UTP [3]: 0.01959 | a-ketoglutarate [3]: 0.135 | citrate/isocitrate [3]: 0.264 | cytidine [3]: 0.5859 | dATP [3]: -0.01819 | dGMP/AMP [3]: -0.2513 | fumarate [3]: -0.275 | glucose-1/6-phosphate [3]: -0.0724 | glycerate [3]: 0.1576 | guanine [3]: 0.3676 | guanosine [3]: 0.05893 | hypoxanthine [3]: 0.3977 | indole [3]: 0.3227 | inosine [3]: 0.344 | 2_3-Diphosphoglyceric acid [3]: -0.02223 | 4-phosphopantothenate [3]: 0.1153 | 6-phospho-D-gluconate [3]: 0.05128 | FMN [3]: 0.1654 | IMP [3]: -0.204 | Pyrophosphate [3]: 0.1304 | Sedoheptoluse bisphosphate [3]: -0.1099 | cyclic-AMP [3]: 0.1921 | glutathione disulfide [3]: -0.02789 | lactate [3]: 0.5292 | myo-inositol [3]: 0.004909 | nicotinate [3]: 0.3366 | ornithine [3]: 0.4059 | phosphoenolpyruvate [3]: 0.0562 | pyruvate [3]: 0.2612 | ribose-phosphate [3]: -0.06101 | sarcosine/alanine [3]: 0.3466 | sn-glycerol-3-phosphate [3]: 0.2394 | succinate/methylmalonic acid [3]: 0.03717 | uridine [3]: 0.4023 | xanthosine [3]: -0.2403 | EC50 (P. falciparum): 0.35 µM | PPI inhibitors of Atg8-Atg3 interaction (Atg8-Atg3): PPI inhibitors | EC50 (T. cruzi Tulahuen): 0.281 µM

CN(C)c1ccc(C=Cc2nc(=O)c3ccccc3o2)cc1 [MMV006309]
non-toxic N. caninum actives [4]: non-toxic N. caninum actives | Acetyllysine [3]: -0.06229 | N-acetyl-L-ornithine [3]: 0.06709 | N-carbamoyl-L-aspartate [3]: 2.985 | NADPH [3]: -0.04695 | dAMP [3]: -0.4457 | dCMP [3]: 0.07949 | dTDP [3]: -0.6452 | dTMP [3]: -0.3602 | dTTP [3]: -0.2468 | dihydroorotate [3]: 3.691 | orotate [3]: -0.6105 | DLH [3]: -0.3184 | DLS/SDL/SID [3]: -0.2456 | PD [3]: 0.4341 | PEE [3]: -0.1161 | PVNF [3]: -0.4902 | 3-phosphoglycerate [3]: -0.1315 | ADP-D-glucose [3]: 0.1572 | ATP [3]: 0.2918 | CDP [3]: -0.5525 | D-sedoheptulose-1/7-phosphate [3]: 0.4312 | FAD [3]: 0.6491 | GMP [3]: 2.281 | NAD+ [3]: 0.2407 | NADP+ [3]: 0.05923 | Octoluse Bisphosphate [3]: 0.03854 | Pyroglutamic acid [3]: -0.251 | UDP-D-glucose [3]: 0.2158 | UDP-D-glucuronate [3]: 0.1905 | UDP-N-acetyl-glucosamine [3]: 0.2147 | UDP [3]: -0.5733 | UMP [3]: -0.8586 | UTP [3]: -0.4965 | a-ketoglutarate [3]: -0.2334 | citrate/isocitrate [3]: -0.148 | cytidine [3]: 0.1715 | dATP [3]: 0.5165 | dGMP/AMP [3]: -0.4086 | fumarate [3]: 0.4652 | glucose-1/6-phosphate [3]: 0.457 | glycerate [3]: 0.3869 | guanine [3]: 0.4747 | guanosine [3]: 0.5548 | hypoxanthine [3]: -0.07215 | indole [3]: -0.02242 | inosine [3]: 0.08258 | 2_3-Diphosphoglyceric acid [3]: 0.3655 | 4-phosphopantothenate [3]: -0.02209 | 6-phospho-D-gluconate [3]: 0.4028 | FMN [3]: 0.2378 | IMP [3]: -0.05126 | Pyrophosphate [3]: 0.2614 | Sedoheptoluse bisphosphate [3]: 0.2668 | cyclic-AMP [3]: 0.09044 | glutathione disulfide [3]: 0.5032 | lactate [3]: 0.1016 | myo-inositol [3]: 0.2436 | nicotinate [3]: 0.1263 | ornithine [3]: -0.005843 | phosphoenolpyruvate [3]: -0.2041 | pyruvate [3]: -0.06331 | ribose-phosphate [3]: -0.02548 | sarcosine/alanine [3]: 0.5971 | sn-glycerol-3-phosphate [3]: -0.04439 | succinate/methylmalonic acid [3]: 0.1372 | uridine [3]: -0.2519 | xanthosine [3]: 0.3479 | EC50 (P. falciparum): 0.0515 µM

COc1ccc(C2c3ccc4ccccc4c3Oc3ncn(CCCn4ccnc4)c(=N)c32)cc1OC (stereo not shown) [MMV667490]
effect on rPfA-M1 in words (PfA-M1): particularly effective | effect on rPfA-M17 in words (PfA-M17): only moderately inhibiting

COc1cc(-c2nc(-c3ccccc3)c(-c3ccccc3)[nH]2)cc(OC)c1O [MMV020750]
inhibition of M1 in words [5]: moderate competitive inhibitors | inhibition of M17 in words [6]: moderate competitive inhibitors

Source: article PMC4965013, “Open Source Drug Discovery with the Malaria Box Compound Collection for Neglected Diseases and Beyond” (PLoS Pathogens, 2016)
